Assays:
[1] = test system: MRSA COL (MB5393); assay: TarO Inhibitor/β-Lactam Synergy Assay (growth, OD600); assay type: cell-based, Staphylococcus aureus; conditions: for MITC95 TarO inhibitor + 4 μg/mL IPM; Bacteria: SA_MB5393: in combination with 4 μg/mL imipenem (IPM); for MITC95 TarO inhibitor + 8 μg/mL DCX; Bacteria: SA_MB5393: in combination with 8 μg/mL dicloxacillin (DCX)
Method: The TarO inhibitor/β-lactam synergy assay was performed to measure the re-sensitization of methicillin-resistant Staphylococci bacteria (MB5393: MRSA COL) to β-lactam antibiotics by TarO inhibitors. MRSA COL is a hospital-acquired penicillinase-negative clinically isolated strain commonly used in Staphylococcus aureus studies and is fully resistant to the antimicrobial bioactivity of β-lactam antibiotics, including but not limited to imipenem and dicloxacillin. […] MRSA COL is fully refractory to β-lactam antibiotic effect at the current clinical breakpoint concentrations and as such MRSA COL is fully viable at these concentrations.
The β-lactam antibiotic concentration was fixed at the clinical breakpoint (imipenem 4 μg/ml or dicloxacillin 8 μg/ml) and the TarO inhibitors were titrated by 2 fold starting from the highest concentration of 200 μM with final DMSO concentration of 2% in the assay. 5×10^5 colony forming unit of MRSA COL in cation-adjusted Mueller Hinton broth (CAMHB) was then mixed and the assay plate was incubated for 20 hours at 37° C. without shaking. After 20 hours, the optical density at 600 nm (OD600) was read for all wells to determine relative growth of MRSA COL.

[2] = test system: MRSA COL (MB5393); assay: as above; assay type: cell-based; conditions: Staphylococcus aureus, TarO inhibitor alone, >200 μM = 95% growth inhibition not achieved, 20 hours at 37° C., read-out: MITC95 TarO inhibitor alone, Bacteria: SA_MB5393

Structure (SMILES) | MITC95 TarO inhibitor + 4 μg/mL IPM; Bacteria: SA_MB5393 [1] [µM] | MITC95 TarO inhibitor + 8 μg/mL DCX; Bacteria: SA_MB5393 [1] [µM] | IC95 [2] [µM] | MITC95 concentration of β-lactam antibiotic alone ([1]; β-lactam alone, MRSA COL) [µg/mL]
Cc1cnc(F)c(CNC(=O)N2C(=O)O[C@H](c3cc(C(F)(F)F)cc(C(F)(F)F)c3)[C@@H]2C)c1 [Example 35, (4S,5R)-5-[3,5-bis(trifluoromethyl)phenyl]-N-[(2-fluoro-5-methylpyridin-3-yl)methyl]-4-methyl-2-oxo-1,3-oxazolidine-3-carboxamide] | 0.10 | 0.98 | > 200 | –
C[C@H]1[C@@H](c2cc(C(F)(F)F)cc(C(F)(F)F)c2)OC(=O)N1C(=O)CCc1cccc2sccc12 [Example 68, (4S,5R)-3-[3-(1-benzothiophen-4-yl)propanoyl]-5-[3,5-bis(trifluoromethyl)phenyl]-4-methyl-1,3-oxazolidin-2-one] | 0.01 | 0.20 | > 200 | –
Cc1cc([C@H]2OC(=O)N(C(=O)CCc3cccc4cnccc34)[C@H]2C)cc(C(F)(F)F)c1 [Example 74, (4S,5R)-3-(3-isoquinolin-5-ylpropanoyl)-4-methyl-5-[3-methyl-5-(trifluoromethyl)phenyl]-1,3-oxazolidin-2-one] | 0.30 | 6.25 | > 200 | –
COc1ccccc1CNC(=O)N1C(=O)O[C@H](c2cccc(C(F)(F)F)c2)[C@@H]1C [Example 24, (4S,5R)-N-(2-methoxybenzyl)-4-methyl-2-oxo-5-[3-(trifluoromethyl)phenyl]-1,3-oxazolidine-3-carboxamide] | 0.20 | 7.29 | > 200 | –
C[C@H]1[C@@H](c2cccc(F)c2)OC(=O)N1C(=O)CCc1cncc2ccccc12 [Example 80, (4S,5R)-5-(3-fluorophenyl)-3-(3-isoquinolin-4-ylpropanoyl)-4-methyl-1,3-oxazolidin-2-one] | 4.69 | – | > 200 | –
C[C@H]1[C@@H](c2cc(C(F)(F)F)cc(C(F)(F)F)c2)OC(=O)N1C(=O)CCc1cncc2ccccc12 [Example 65, (4S,5R)-5-(3,5-bis(trifluoromethyl)phenyl)-3-(3-(isoquinolin-4-yl)propanoyl)-4-methyloxazolidin-2-one] | 0.06 | 0.20 | > 200 | –
C[C@H]1[C@@H](c2cc(C(F)(F)F)cc(C(F)(F)F)c2)OC(=O)N1C(=O)/C=C/c1cncc2ccccc12 [Example 100, (4S,5R)-5-(3,5-bis(trifluoromethyl)phenyl)-3-((E)-3-(isoquinolin-4-yl)acryloyl)-4-methyloxazolidin-2-one] | 1.60 | – | > 200 | –
C[C@H]1[C@@H](c2cc(C(F)(F)F)cc(C(F)(F)F)c2)OC(=O)N1C(=O)NCc1cnc2c(c1)CCC2 [Example 42, (4S,5R)-5-[3,5-bis(trifluoromethyl)phenyl]-N-(6,7-dihydro-5H-cyclopenta[b]pyridin-3-ylmethyl)-4-methyl-2-oxo-1,3-oxazolidine-3-carboxamide] | 0.78 | 12.50 | > 200 | –
C[C@@H]1CN(C(=O)NCc2cncc3ccccc23)C(=O)OC1c1cc(C(F)(F)F)cc(C(F)(F)F)c1 (stereo in doubt) [Example 93, (5R,6S)-6-(3,5-bis(trifluoromethyl)phenyl)-N-(isoquinolin-4-ylmethyl)-5-methyl-2-oxo-1,3-oxazinane-3-carboxamide] | 0.13 | 0.50 | > 200 | –
Cc1ccccc1CNC(=O)N1C(=O)O[C@H](c2cc(F)cc(C(F)(F)F)c2)[C@@H]1C [Example 16, (4S,5R)-5-[3-fluoro-5-(trifluoromethyl)phenyl]-4-methyl-N-(2-methylbenzyl)-2-oxo-1,3-oxazolidine-3-carboxamide] | 0.38 | 3.52 | > 200 | –
C[C@H]1[C@@H](c2cc(C(F)(F)F)cc(C(F)(F)F)c2)OC(=O)N1C(=O)COc1cccc2ccccc12 [Example 91, (4S,5R)-5-[3,5-bis(trifluoro-methyl)phenyl]-4-methyl-3-[(naphthalen-1-yloxy)acetyl]-1,3-oxazolidin-2-one] | 0.76 | 4.69 | > 200 | –
C[C@H]1[C@@H](c2cc(C(F)(F)F)cc(C(F)(F)F)c2)OC(=O)N1C(=O)NCc1cccnc1N1CCOCC1 [Example 45, (4S,5R)-5-[3,5-bis(trifluoromethyl)phenyl]-4-methyl-N-[(2-morpholin-4-ylpyridin-3-yl)methyl]-2-oxo-1,3-oxazolidine-3-carboxamide] | 4.69 | 25 | > 200 | –
C[C@H]1[C@@H](c2cc(F)cc(C(F)(F)F)c2)OC(=O)N1C(=O)N(O)Cc1cccc2ccccc12 [Example 46, (4S,5R)-5-[3-fluoro-5-(trifluoromethyl)phenyl]-N-hydroxy-4-methyl-N-(naphthalen-1-ylmethyl)-2-oxo-1,3-oxazolidine-3-carboxamide] | 6.25 | 50 | > 200 | –
C[C@H]1[C@@H](c2cc(F)cc(C(F)(F)F)c2)OC(=O)N1C(=O)NCc1ccccc1[N+](=O)[O-] [Example 3, (4S,5R)-5-[3-fluoro-5-(trifluoromethyl)phenyl]-4-methyl-N-(2-nitrobenzyl)-2-oxo-1,3-oxazolidine-3-carboxamide] | 0.33 | 2.60 | > 200 | –
C[C@H]1[C@@H](c2cc(F)cc(C(F)(F)F)c2)OC(=O)N1C(=O)NCc1cccc2cncnc12 [Example 30, (4S,5R)-5-[3-fluoro-5-(trifluoromethyl)phenyl]-4-methyl-2-oxo-N-(quinazolin-8-ylmethyl)-1,3-oxazolidine-3-carboxamide] | 0.68 | 4.69 | > 200 | –
O=C(CCc1cncc2ccccc12)N1C(=O)O[C@H](c2cc(C(F)(F)F)cc(C(F)(F)F)c2)C12CC2 [Example 101, (R)-7-(3,5-bis(trifluoromethyl)phenyl)-4-(3-(isoquinolin-4-yl)propanoyl)-6-oxa-4-azaspiro[2.4]heptan-5-one] | 0.20 | – | > 200 | –
COc1cccc([C@H]2OC(=O)N(C(=O)CCc3cncc4ccccc34)[C@H]2C)c1 [Example 87, (4S,5R)-3-(3-isoquinolin-4-ylpropanoyl)-5-(3-methoxyphenyl)-4-methyl-1,3-oxazolidin-2-one] | 2.08 | 50 | > 200 | –
Cc1onc(-c2c(Cl)cccc2Cl)c1C(=O)N[C@@H]1C(=O)N2[C@@H]1SC(C)(C)[C@@H]2C(=O)O [dicloxacillin, reference compound] | – | – | – | 128
